Measured values taken from patent US20100003217A1, “Compounds and Pharmaceutical Compositions for the Treatment of Viral Infections” (priority 2008, published 2010).
“And” between values parts separate entries of the source, which are not always exact repeats. Identical values can stand only once.

Tested on: rat primary hepatocytes
Assay: Metabolic disposition of [^14C]-Compound 1 and [^14C]-2′-C-methyl guanosine in rat primary hepatocytes (incubation medium, cellular extracts, nucleotide levels)
Format: in vitro ADME, Sprague Dawley rat
Summary of the method: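 Radio-HPLC and liquid scintillation counting quantified metabolites in incubation medium and in 70% methanol cell extracts. Samples came from cultured rat, monkey or human primary hepatocytes exposed at 37° C to 1 or 10 μM [^14C]-compound or [^14C]-2′-C-methyl guanosine, sampled at 1–24 hours. Phosphates were confirmed by phosphatase digestion to the nucleoside.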

[1] = rat hepatocytes (Rs458), 1 μM [^14C]-Compound 1, 1 h
[2] = rat hepatocytes (Rs458), 1 μM [^14C]-Compound 1, 8 h
[3] = rat hepatocytes (Rs458), 1 μM [^14C]-Compound 1, 24 h
[4] = rat hepatocytes Rs448, 10 μM [^14C]-2′-C-methyl guanosine, 1 h
[5] = rat hepatocytes Rs448, 10 μM [^14C]-2′-C-methyl guanosine, 4 h
[6] = rat hepatocytes Rs448, 10 μM [^14C]-2′-C-methyl guanosine, 8 h
[7] = rat hepatocytes Rs448, 10 μM [^14C]-2′-C-methyl guanosine, 24 h
[8] = rat hepatocytes Rs458, 1 μM [^14C]-2′-C-methyl guanosine, 1 h
[9] = rat hepatocytes Rs458, 1 μM [^14C]-2′-C-methyl guanosine, 8 h
[10] = rat hepatocytes Rs458, 1 μM [^14C]-2′-C-methyl guanosine, 24 h
[11] = rat hepatocytes Rs458, 10 μM [^14C]-2′-C-methyl guanosine, 1 h
[12] = rat hepatocytes Rs458, 10 μM [^14C]-2′-C-methyl guanosine, 4 h
[13] = rat hepatocytes Rs458, 10 μM [^14C]-2′-C-methyl guanosine, 8 h
[14] = rat hepatocytes Rs458, 10 μM [^14C]-2′-C-methyl guanosine, 24 h

Which “metabolites observed in cellular extracts (% of total radioactivity)” value (rat hepatocytes (Rs448, Rs458), 10 μM [^14C]-Compound 1, 1 h, listed as Compd 6) does the source give for `C[C@@]1(O)[C@H](O)[C@@H](COP(=O)(O)OP(=O)(O)O)O[C@H]1n1cnc2c(=O)[nH]c(N)nc21` [Compound 6, [(2R)-2-methyl-β-D-ribofuranosyl]guanine 5′-diphosphate] here?
The value was 11.4% and 12.3%.

What about the “metabolites observed in cellular extracts (% of total radioactivity)” value (rat hepatocytes (Rs448, Rs458), 10 μM [^14C]-Compound 1, 4 h, listed as Compd 6) of the same compound?
Its value is 13.4% and 16.7%.

And the “metabolites observed in cellular extracts (% of total radioactivity)” value (rat hepatocytes (Rs448, Rs458), 10 μM [^14C]-Compound 1, 8 h, listed as Compd 6)?
Its value is 12.7% and 16.8%.

What about the “metabolites observed in cellular extracts (% of total radioactivity)” value (rat hepatocytes (Rs448, Rs458), 10 μM [^14C]-Compound 1, 24 h, listed as Compd 6) of the same compound?
The value was 15.2% and 14.6%.

And the “2′-C-methyl guanosine nucleotide levels in cellular extracts” value (“2′-C-methyl guanosine nucleotide levels” for short) (rat hepatocytes (Rs458), 1 μM [^14C]-Compound 1, 0 h)?
Its value is “BLD (BLD = below limit of detection (0.02 pmol/million cells))”.

And the “2′-C-methyl guanosine nucleotide levels” value [1]?
The value was 20.0 pmol/million cells.

And the “metabolites observed in cellular extracts (% of total radioactivity)” value [1]?
The value was 13.0%.

And the “2′-C-methyl guanosine nucleotide levels” value [2]?
Its value is 41.2 pmol/million cells.

What about the “metabolites observed in cellular extracts (% of total radioactivity)” value [2] of the same compound?
The value was 13.27%.

What about the “2′-C-methyl guanosine nucleotide levels” value [3] of the same compound?
Its value is 30.0 pmol/million cells.

What about the “metabolites observed in cellular extracts (% of total radioactivity)” value [3] of the same compound?
The value was 18.1%.

And the “2′-C-methyl guanosine nucleotide levels” value (rat hepatocytes Rs448, 10 μM [^14C]-2′-C-methyl guanosine, 0 h)?
The value was 0 pmol/million cells.

And the “2′-C-methyl guanosine nucleotide levels” value [4]?
The value was 7.00 pmol/million cells.

And the “Major metabolites observed in cellular extracts (% of total radioactivity)” value [4]?
Its value is 1.24 % of total radioactivity.

What about the “2′-C-methyl guanosine nucleotide levels” value [5] of the same compound?
Its value is 28.0 pmol/million cells.

What about the “Major metabolites observed in cellular extracts (% of total radioactivity)” value [5] of the same compound?
Its value is 3.54 % of total radioactivity.

And the “2′-C-methyl guanosine nucleotide levels” value [6]?
Its value is 47.0 pmol/million cells.

What about the “Major metabolites observed in cellular extracts (% of total radioactivity)” value [6] of the same compound?
Its value is 4.76 % of total radioactivity.

What about the “2′-C-methyl guanosine nucleotide levels” value [7] of the same compound?
Its value is 101 pmol/million cells.

And the “Major metabolites observed in cellular extracts (% of total radioactivity)” value [7]?
Its value is 10.4 % of total radioactivity.

What about the “2′-C-methyl guanosine nucleotide levels” value (rat hepatocytes Rs448, 10 μM [^14C]-Compound 1, 0 h) of the same compound?
Its value is 0 pmol/million cells.

What about the “2′-C-methyl guanosine nucleotide levels” value (rat hepatocytes Rs448, 10 μM [^14C]-Compound 1, 1 h) of the same compound?
Its value is 112 pmol/million cells.

What about the “2′-C-methyl guanosine nucleotide levels” value (rat hepatocytes Rs448, 10 μM [^14C]-Compound 1, 4 h) of the same compound?
Its value is 269 pmol/million cells.

And the “2′-C-methyl guanosine nucleotide levels” value (rat hepatocytes Rs448, 10 μM [^14C]-Compound 1, 8 h)?
Its value is 311 pmol/million cells.

What about the “2′-C-methyl guanosine nucleotide levels” value (rat hepatocytes Rs448, 10 μM [^14C]-Compound 1, 24 h) of the same compound?
The value was 215 pmol/million cells.

And the “2′-C-methyl guanosine nucleotide levels” value (rat hepatocytes Rs458, 1 μM [^14C]-2′-C-methyl guanosine, 0 h)?
Its value is “BLD (BLD = below limit of detection (0.02 pmol/million cells))”.

What about the “2′-C-methyl guanosine nucleotide levels” value [8] of the same compound?
The value was 0.85 pmol/million cells.

And the “Major metabolites observed in cellular extracts (% of total radioactivity)” value [8]?
The value was 1.50 % of total radioactivity.

And the “2′-C-methyl guanosine nucleotide levels” value [9]?
The value was 4.00 pmol/million cells.

And the “Major metabolites observed in cellular extracts (% of total radioactivity)” value [9]?
The value was 5.14 % of total radioactivity.

And the “2′-C-methyl guanosine nucleotide levels” value [10]?
Its value is 8.00 pmol/million cells.

And the “Major metabolites observed in cellular extracts (% of total radioactivity)” value [10]?
Its value is 9.88 % of total radioactivity.

What about the “2′-C-methyl guanosine nucleotide levels” value (rat hepatocytes Rs458, 10 μM [^14C]-2′-C-methyl guanosine, 0 h) of the same compound?
Its value is 0 pmol/million cells.

What about the “2′-C-methyl guanosine nucleotide levels” value [11] of the same compound?
The value was 5.60 pmol/million cells.

And the “Major metabolites observed in cellular extracts (% of total radioactivity)” value [11]?
The value was 1.08 % of total radioactivity.

What about the “2′-C-methyl guanosine nucleotide levels” value [12] of the same compound?
Its value is 28.0 pmol/million cells.

What about the “Major metabolites observed in cellular extracts (% of total radioactivity)” value [12] of the same compound?
The value was 4.01 % of total radioactivity.

What about the “2′-C-methyl guanosine nucleotide levels” value [13] of the same compound?
Its value is 48.0 pmol/million cells.

What about the “Major metabolites observed in cellular extracts (% of total radioactivity)” value [13] of the same compound?
Its value is 5.42 % of total radioactivity.

And the “2′-C-methyl guanosine nucleotide levels” value [14]?
Its value is 91.0 pmol/million cells.

And the “Major metabolites observed in cellular extracts (% of total radioactivity)” value [14]?
Its value is 9.65 % of total radioactivity.

And the “2′-C-methyl guanosine nucleotide levels” value (rat hepatocytes Rs458, 10 μM [^14C]-Compound 1, 0 h)?
Its value is 0 pmol/million cells.

And the “2′-C-methyl guanosine nucleotide levels” value (rat hepatocytes Rs458, 10 μM [^14C]-Compound 1, 1 h)?
The value was 129 pmol/million cells.

What about the “2′-C-methyl guanosine nucleotide levels” value (rat hepatocytes Rs458, 10 μM [^14C]-Compound 1, 4 h) of the same compound?
The value was 326 pmol/million cells.

What about the “2′-C-methyl guanosine nucleotide levels” value (rat hepatocytes Rs458, 10 μM [^14C]-Compound 1, 8 h) of the same compound?
The value was 375 pmol/million cells.

And the “2′-C-methyl guanosine nucleotide levels” value (rat hepatocytes Rs458, 10 μM [^14C]-Compound 1, 24 h)?
Its value is 207 pmol/million cells.
